The conditions of data set [1]: current Erbb2-targeted therapies; cited from earlier work.
Another data set has as its system primary keratinocytes. The settings on record: cited from earlier work.
The next data set relates to Tg.AC mice. The data set can be described thus: UV-induced skin tumorigenesis in v-rasHa transgenic Tg.AC mice. Format: in vivo, mouse. An excerpt:
Animals. Homozygous v-rasHa transgenic mice on an FVB/N background were used in in vivo experiments. To obtain keratinocytes with genetic ablation of Erbb2, loxP sites were inserted flanking exon 2 of Erbb2 such that splicing from exon1 to downstream introns upon Cre recombinase expression creates a frameshift mutation. Mice were maintained in our animal facility and provided with Purina lab chow (Nestle Purina PetCare, St. Louis, Mo.) and water ad libitum. The dorsal skin was clipped one day before treatment using electric clippers (Wahl, Sterling, II) and shaved on the day of treatment with a Remington Microscreen shaver (Madison, N.C.). […] The Ultraviolet-B TL 40W/12 RS bulbs (Philips, Somerset, N.J.) used emitted approximately 30% UVA, 70% UVB and <1% UVC, with a total output of 470 μW/cm^2, as measured with radiometric photodetector probes (Newport, Irvine, Calif.). For tumor experiments, homozygous Tg.AC mice were treated and exposed twice with an interval of 7 d. Tumor number was counted and tumor volume measured weekly using calipers. Skin-fold thickness was measured using calipers (Mitutoyo, Aurora, Ill.) to lightly pinch the dorsal skin. All animal procedures were performed in accordance with American Association of Laboratory Animal Care guidelines and approved by Creighton University's Institutional Animal Care and Use Committee.
Statistical methods. The tumor experiment was analyzed using two-way ANOVA. Statistical significance in other experiments was assessed using two-way ANOVA or Student's t-test with Bonferroni post-test. All experiments, excluding the tumor experiment, were replicated several times and consistent results obtained.
The skin tumorigenesis experiment was performed in v-ras^Ha transgenic Tg.AC mice because of their enhanced sensitivity to UV-induced skin tumorigenesis (13; 52). […] While the vehicle-treated mice continued to accrue tumors throughout the duration of the experiment, the AG825-treated group reached a plateau in tumor number by 7 weeks after the first UV exposure. By the end of the experiment, mean tumor volume was also 70% less in the AG825-treated group when compared to the vehicle control. Representative tumors from each treatment were examined histologically and all were benign squamous papillomas with similar differentiation status.
Upon activation, Erbb2 heterodimerizes with either EGFR or Erbb3 to transduce signals. Support for the hypothesis that Erbb2 increases skin carcinogenesis comes from our investigations of the functions of its dimerization partner EGFR. A tumor study was conducted to assess the role of EGFR in the clonal expansion of transformed cells to form benign tumors in the skin of v-ras^Ha transgenic Tg.AC mice. Inhibition of EGFR with the tyrphostin inhibitor AG1478 decreased the number of tumors that developed by about 50% in UV-exposed v-rasHa transgenic mice. Mean tumor volume was 80% less upon inhibition of EGFR-mediated signaling when compared to, UV-exposed and vehicle-treated controls.

The next data set relates to Cdc25a. The data set can be described thus: Cdc25a immunoblotting in keratinocytes. The settings on record: vs appropriate controls. Format: cell-based, mouse. On the procedure: Immunoblotting. Flash frozen skin was ground with a mortar and pestle on dry ice, homogenized in lysis buffer containing 10 mM Tris (pH 7.4), 150 mM NaCl, 10% glycerol, 1% Triton X-100, 1 mM EDTA, Complete Protease Inhibitor Cocktail (Roche, Germany), 1 mM Na3V O4, 1.5 μM EGTA, and 10 μM NaF. Protein was quantified using the Coomassie Brilliant Blue G-250 protein assay (Bio-Rad, Hercules, Calif.). The evenness of loading and transfer was determined by staining with Ponceau S and by actin immunoblotting. […]
Cell culture. […] Transfection efficiency was quantified by determining the proportion of the cells that incorporated the fluorescent Cy3-conjugated siRNA or GFP one day post-transfection. […]
In order to understand how Erbb2 regulates S-phase progression following UV irradiation, signaling pathways known to regulate progression into and through S-phase were examined. […] The effect of abrogation of Erbb2 on Cdc25a occurred post-transcriptionally, since no decrease in Cdc25a mRNA was detected in our microarray analysis using the Erbb2 inhibitor (32). […]

As for “pertuzumab: current Erbb2-targeted therapy”, the skin toxicity entry in data set [1] is “Low incidence”.

As to `COCC(=O)NC/C=C/c1ccc2ncnc(Nc3ccc(Oc4ccc(C)nc4)c(C)c3)c2c1` [CP-724714], the skin toxicity entry in data set [1] is listed as “Low incidence”.

`O=c1[nH]cc(F)c(=O)[nH]1` [5-FU, 5-fluorouracil]: the “S-phase arrest in keratinocytes by chemotherapeutic agents” value in the data set with primary keratinocytes is on record as “cause S-phase arrest”.

For the compound `CC[C@@]1(O)C(=O)OCc2c1cc1n(c2=O)Cc2cc3ccccc3nc2-1` [camptothecin], the “S-phase arrest in keratinocytes by chemotherapeutic agents” value with primary keratinocytes is reported as “cause S-phase arrest”.

Consider `COc1cc2ncnc(Nc3cccc(Cl)c3)c2cc1OC` [AG1478], for which the “mean tumor volume less than UV-exposed vehicle-treated controls” value in the data set on Tg.AC mice (EGFR inhibition) was determined as 80%. The “decrease in the number of tumors that developed” value with Tg.AC mice (UV-exposed v-rasHa transgenic mice, EGFR inhibition) is “about 50%”. Also, the “UV-induced carcinogenesis (FIG. 6)” value in the data set with Tg.AC mice (topical treatment 2 h prior to UV irradiation) is “suppress”. For the same compound, the Cdc25a immunoreactivity result in the data set on Cdc25a is recorded as “not decreased”.

Values taken from patent US20080119530A1, “Method for treatment and prevention of ultraviolet light induced skin pathologies” (priority 2006, published 2008).
